Values joined by “and” are separate entries in the source; they are usually repeats but may differ in a detail not shown here. Equal values may be shown once. “Also recorded” adds a separate entry of the source.
How the values were obtained:
astrocyte cultures = assay: astrocyte toxicity assay, staurosporine challenge (nuclear condensation); assay type: cell-based, mouse
Description: (§1) Pharmacological treatments in vitro. To assess the ability of TAT-BH4 to penetrate into cells, astrocytes (8×10^4 cells/well) were plated in 24-well plates containing glass coverslips. Cultures were treated with 10 μg/ml Hoechst 33342 (Sigma) for 15 min., quickly washed and incubated with 0.5 μM TAT-BH4 (TAT^48-57 conjugated to the BH4 domain of Bcl-XL) either unconjugated or conjugated with 5(6)-carboxyfluorescein (FAM, Primm srl) for 30 min. Peptides in excess were subsequently removed, cells were washed and immediately fixed (methanol:acetone 1:1 for 10 min.) or maintained in culture for 24 hrs and then fixed. The presence of the peptides inside the cells was evaluated by a digital camera (DFC 310 FX, Leica Microsystem) mounted on a DM5000 B microscope (Leica Microsystem) and analysed by Leica Application Suite 3.5.0 software. […]
(§2) Astrocyte toxicity assays. The toxic effect of DHPG or staurosporine on cultured astrocytes was determined by double staining with the fluorescent nuclear dye Hoechst 33342 and anti-active caspase-3 immunocytochemistry using a rabbit polyclonal antibody (1:50, Cell Signalling Technology). The number of astrocytes showing condensed nuclei and activated caspase-3 24 hrs after the pharmacological challenge was counted by two independent operators in a blind manner. […]

wild-type astrocytes = assay: single-cell Fluo4 [Ca^2+]i imaging in wild-type astrocytes; assay type: cell-based, mouse
Description: (§3) Astrocytes cultures. Primary astrocyte cultures (>99% GFAP-positive) were prepared from the spinal cord of newborn mice (hSOD1^G93A or wild-type littermates). Once the cultures reached the confluence, they were replated at the optimal density either in 24-well plates or 35-mm Petri dishes containing glass coverslips and maintained in Minimal Essential Medium (MEM, GIBCO) supplemented with 10% foetal bovine serum (FBS, Sigma-Aldrich).
(§4) [Ca^2+]i imaging. ASTROCYTES were plated (2.5×10^4 cells/35 mm Petri dish) on glass coverslips and used 2-3 days later as already shown. Before imaging, cells were loaded with 5 μM Fluo4-AM (Molecular Probes) for 15-20 min. at 37° C. in a HEPES-KRH buffer containing (in mM): NaCl 116, KCl 4, MgCl2 1, CaCl2 1.8, HEPES-acid 10, glucose 25 (pH 7.4) and then allowed to de-esterify for 10 min. After several washes, coverslips were mounted in an open perfusion micro-incubator (PDMI-2, Harvard Apparatus) set at 37° C. on the stage of the optical recording microscope. During experiments, cells were continuously perfused with HEPES-KRH (1 ml/min), and 100 μM DHPG was applied via a software-controlled micro-perfusion fast-step device (100 μl/min, Warner Instrument Corp.) A Zeiss Axiovert 200 inverted fluorescence microscope was modified to allow EPI illumination (Visitron Systems). Fluo4 fluorescence was recorded through a 63× or 40× objectives lens (Zeiss, Neofluar 63×/1.25 Oil, Neofluar 40×/1.3 Oil) and directed through a Zeiss filter set 10 (BP 450-490; BP 515-565) at 200- or 400 ms of intervals by imaging with excitation light at 488 nm generated by a polychromator illumination system (Visichrome, Visitron). Video images, digitized with MetaFluor, were analyzed with MetaMorph software (Universal Imaging). Temporal dynamics of Fluo4 fluorescence have been expressed as background-subtracted ΔF/F0(%), where F0 represents the fluorescence level of the cells before stimulation, and F represents the change in fluorescence occurring during the stimulus.
(§5) [Ca^2+]i imaging. The measurements of [Ca^2+]i were performed as described in Example 2. Briefly, cells were loaded with 5 μM Fluo4-AM and then allowed to de-esterify for 10 min.
(§6) After several washes, coverslips were mounted in an open perfusion micro-incubator set at 37° C. on the stage of the optical recording microscope. During experiments, cells were continuously perfused with HEPES-KRH (1 ml/min), and 0.5 μM TAT-BH4 was applied 30 min. before adding 100 μM DHPG via a software-controlled micro-perfusion fast-step device (100 μl/min, Warner Instrument Corp.).

hSOD1^G93A mice [1] = assay: chronic treatment of hSOD1^G93A mice: disease onset, rotarod, survival; assay type: in vivo, mouse; settings: 5 mg/kg i.p. daily from age 40 days
Description: Transgenic mice. Transgenic mice expressing human SOD1^G93A (B6SJL-TgN(SOD1-G93A)1Gur were purchased from The Jackson Laboratories. The colonies were maintained by breeding hemizygote males to wild-type C57BI6/SJL F1 hybrid females. Offspring were genotyped and used for subsequent studies. Animal procedures were approved by the Italian Ministry of Health.
(§7) Pharmacological treatment in vivo. hSOD1^G93A mice were administrated daily 5 mg/kg TAT-BH4 peptide in PBS containing 10% glycerol or vehicle alone (PBS plus 10% glycerol) intraperitoneally starting at the age of 40 days (n=14 mice for each condition). Mice were thereafter kept under daily observation and weighted twice a week. Age of disease onset was retrospectively determined as the time when mice reached the peak in the body weight. Motor performance was assessed twice a week by rotarod test starting at the age of 50 days. Briefly, animals were place on an accelerating rod (Ugo Basile) and the time each mouse remained on the rod was recorded. The average of three independent trials per session was used for further analysis of the data. End stage was defined as the time in which animals were unable to right themselves within 30 seconds when placed on their side.
Statistics. Data are represented as mean±s.e.m. and statistical significance is verified using GraphPad Prism software. Unpaired or paired 2-tailed t-test was used for comparisons between two groups; one-way or two-way analysis of variance (ANOVA) followed by Bonferroni post-hoc test was used for comparisons of multiple groups; repeated measures two-way ANOVA was used for behavioral test; the Logrank test was used for disease onset and survival analysis.

[2] = system: hSOD1^G93A-expressing astrocytes; assay: cytochrome c release (co-localization of Cyt c with SOD2); assay type: cell-based, mouse; settings: DHPG 100 μM
Description: Pharmacological treatments in vitro. To assess the ability of TAT-BH4 to penetrate into cells, astrocytes (8×10^4 cells/well) were plated in 24-well plates containing glass coverslips. Cultures were treated with 10 μg/ml Hoechst 33342 (Sigma) for 15 min., quickly washed and incubated with 0.5 μM TAT-BH4 (TAT^48-57 conjugated to the BH4 domain of Bcl-XL) either unconjugated or conjugated with 5(6)-carboxyfluorescein (FAM, Primm srl) for 30 min. Peptides in excess were subsequently removed, cells were washed and immediately fixed (methanol:acetone 1:1 for 10 min.) or maintained in culture for 24 hrs and then fixed. The presence of the peptides inside the cells was evaluated by a digital camera (DFC 310 FX, Leica Microsystem) mounted on a DM5000 B microscope (Leica Microsystem) and analysed by Leica Application Suite 3.5.0 software. To test the protective efficacy of TAT-BH4, astrocytes in culture were pre-exposed to different concentrations of the peptide (0.1 and/or 0.5 μM, 30 min.), washed and then treated with DHPG (100 μM, 30 min., Tocris Cookson Ltd.) or staurosporine (1 μM, 6 hrs, Sigma-Aldrich). After removal of DHPG, astrocytes were allowed to recover at 37° C. for 24 hrs.
Cytochrome c release. […] Cytochrome c release from mitochondria was determined by its co-localization with the mitochondrial protein SOD2 using JACoP plug-in ImageJ. […]

hSOD1^G93A mice [3] = assay: histopathological analysis of spinal cord of treated hSOD1^G93A mice; assay type: in vivo, mouse; settings: 5 mg/kg i.p. daily
Excerpt: Tissue preparation and immunohistological analysis. For mouse tissue preparation, the spine was taken and immersed in 4% buffered paraformaldehyde for 24 hrs; spinal cord was extracted, the lumbar tract was removed and either paraffin embedded or cryoprotected in 30% sucrose before freezing. For human tissue preparation, spinal cord was removed and 0.5 cm thick slices were taken from the cervical (C7), thoracic (T4 and T8) and lumbar (L1) levels. Slices were fixed in 10% buffered formalin and embedded in paraffin. Mouse or human spinal cords were sectioned at 5-10 μm and used to perform different immunostainings. On selected sections, the following primary antibodies were used: GFAP (mouse monoclonal antibody, 1:50, Dako), CD11b (rat monoclonal antibody, 1:500, Serotec), mGluR5 (rabbit polyclonal antibody, 1:100, MBL International Corporation); active caspase-3 (rabbit polyclonal antibody, 1:50, Cell Signalling Technology). For active caspase-3 immunostaining, a Tyramide Amplification System kit was used (Perkin Elmer, Inc.). For histopathological analysis, serial sections were either immunostained for GFAP/active caspase-3 or treated with 0.5% cresyl violet (Sigma Aldrich) to detect motor neuron Nissl substance. GFAP/active caspase-3 positive astrocytes and motor neurons were counted for a total of 9 disectors using an unbiased stereologic physical disector technique. Z-axis image stacks (z-step size: 0.5 μm) were collected to generate three-dimensional data sets of spinal cord sections on an MRC 1024 Bio-Rad confocal microscope with a 63× Plan Neofluar NA1,25 oil-immersion objective in condition of optimal iris diameter as defined by LaserSharp 2000 software. Quantitative analysis of punctuate mGluR5, GFAP or CD11 b stainings was performed on confocal acquired images (1024×1024 pixels) of the spinal cord ventral horns from both wild-type and SOD1^G93A animals using ImageJ software (National Institutes of Health). After establishing an intensity threshold, the software calculated the percentage of area occupied by mGluR5, GFAP or CD11b staining by dividing the area of immunopositivity by the total area.
as §7

[4] = system: hSOD1^G93A-expressing astrocytes; assay: astrocyte toxicity assay, DHPG challenge (nuclear condensation, active caspase-3); assay type: cell-based, mouse
Description: as §1, §2

[5] = system: hSOD1^G93A-expressing astrocytes; assay: single-cell Fluo4 [Ca^2+]i imaging in hSOD1^G93A-expressing astrocytes; assay type: cell-based, mouse
Description: as §3, §4, §5, §6

[6] = TAT-BH4 0.5 μM 30 min before STS 1 μM
[7] = TAT-BH4 0.5 μM 30 min before DHPG 100 μM

CN[C@@H]1C[C@H]2O[C@@](C)([C@@H]1OC)n1c3ccccc3c3c4c(c5c6ccccc6n2c5c31)C(=O)NC4 [STS, staurosporine, reference compound]
percentage of cells with nuclear condensation, effect of STS (astrocyte cultures; STS 1 μM, 6 h): caused an increment in the percentage of cells with nuclear condensation | amplitude of [Ca^2+]i plateau (wild-type astrocytes; STS 1 μM): 3.52±0.22 ΔF/F0 | time to plateau of long-lasting calcium rise (wild-type astrocytes; STS 1 μM): 75 to 80 min

H2N-GRKKRRQRRRGGSNRELVVDFLSYKLSQKGYS-COOH (H-GRKKRRQRRRGGSNRELVVDFLSYKLSQKGYS-OH) [TAT-BH4, BH4 domain of Bcl-XL fused via GG to the protein transduction domain of the HIV TAT protein]
extension of life span (hSOD1^G93A mice [1]): 15 days | rotarod motor performance compared to saline-treated animals (hSOD1^G93A mice [1]): significantly improves motor performance; also recorded: performed significantly better | age at disease onset (peak body weight) (hSOD1^G93A mice [1]; n=14): 107.5 ± 1.8 days | survival time (hSOD1^G93A mice [1]; n=14): 138 ± 2.1 days | delay of onset of symptoms compared to controls (hSOD1^G93A mice [1]; onset = peak body weight): 8 days | cells with nuclear condensation (apoptotic cells) after STS, effect of peptide (astrocyte cultures; TAT-BH4 0.1 or 0.5 μM 30 min pre-incubation, STS 1 μM 6 h): reduced the number of apoptotic cells in a dose-dependent manner; also recorded: potently inhibited in a dose-dependent fashion | release of cytochrome c / co-localization of Cyt c and SOD2 after DHPG, effect of peptide ([2]; TAT-BH4 0.5 μM 30 min pre-treatment): restores the complete co-localization of the two proteins; also recorded: significant reduction | change of persistent [Ca^2+]i rise evoked by STS, with respect to STS alone (wild-type astrocytes; [6]): −72% | effect on [Ca^2+]i oscillations in STS-treated cells (wild-type astrocytes; [6]): restored [Ca^2+]i oscillations; also recorded: re-establishment of [Ca^2+]i oscillations | [Ca^2+]i response to local application of the peptide alone (wild-type astrocytes; TAT-BH4 0.5 μM, 30 min): immediate [Ca^2+]i rise followed by sustained [Ca^2+]i oscillations | CD11b-immunopositive microglial cells (hSOD1^G93A mice [3]; n=18 fields from three mice): 1040.7±20.4 cells/mm^2 | GFAP-positive astrocytes in spinal ventral horns (hSOD1^G93A mice [3]; n=18 fields from three mice): 917.9±33.1 cells/mm^2 | change in number of spheroid astrocytes immunopositive for active caspase-3, with respect to saline-treated mice (hSOD1^G93A mice [3]; 100 day-old mice): −74% | number of caspase-3-positive cells compared to saline (hSOD1^G93A mice [3]; 100 day-old mice): significantly lower | number of motor neurons in spinal cord (hSOD1^G93A mice [3]; 100 day-old mice): preservation of a greater number of motor neurons | percentage of astrocytes with nuclear condensation and caspase-3 activation after DHPG, effect of peptide ([4]; TAT-BH4 0.5 μM 30 min pre-treatment, DHPG 100 μM 30 min, 24 hrs recovery): significantly reduced; also recorded: significant reduction | average [Ca^2+]i oscillation frequency after DHPG [5, 7]: 14±3.1 mHz | percentage of cells in which DHPG evokes a single [Ca^2+]i transient followed by sustained [Ca^2+]i oscillations (pattern as in wild-type) [5, 7]: 100% and 99% | [Ca^2+]i response to local application of the peptide alone ([5]; TAT-BH4 0.5 μM, 30 min): immediate [Ca^2+]i rise followed by sustained [Ca^2+]i oscillations

NC(C(=O)O)c1cc(O)cc(O)c1 (racemic) [DHPG, (RS)-3,5-dihydroxyphenylglycine, reference compound]
mitochondria and cytochrome c, effect of DHPG [2]: causes mitochondrial disarrangement and release of cytochrome c | average [Ca^2+]i oscillation frequency (wild-type astrocytes; DHPG 100 μM): 17±2.5 mHz | peak amplitude of initial DHPG-evoked [Ca^2+]i transient (wild-type astrocytes; DHPG 100 μM): 0.27±0.18 ΔF/F0 | percentage of astrocytes with nuclear condensation and caspase-3 activation, effect of DHPG ([4]; DHPG 100 μM, compared with wild-type cells): induces an increment | change of initial [Ca^2+]i transient (ΔF/F0) with respect to wild-type cells ([5]; DHPG 100 μM): −63% | peak amplitude of initial DHPG-evoked [Ca^2+]i transient ([5]; DHPG 100 μM): 0.1±0.08 ΔF/F0 | time to plateau of long-lasting [Ca^2+]i rise ([5]; DHPG 100 μM): about 10 min
